Results taken from ChEMBL document CHEMBL5137040, “Identification of non-ATP-competitive α-carboline inhibitors of the anaplastic lymphoma kinase” (Eur J Med Chem, 2022).
Active and inactive are the calls of the source. The rule behind the calls is not given here.

Legend:
[1] = biological target: ALK tyrosine kinase receptor (Homo sapiens, UniProt Q9UM73); format: cell-based, Sf9
[2] = system: BaF3; test: cells; conditions: Mus musculus, BaF3, 72 h
[3] = system: BaF3; test: cells; conditions: Mus musculus, BaF3, 72 h; remark: listed apart in the source
[4] = system: BaF3; test: cells; conditions: Mus musculus, BaF3, 72 h; remark: listed apart in the source
[5] = Half-life in po dosed nude mouse; format: ADME, organism-based; conditions: in vivo
[6] = system: HL-60; test: Antiproliferative activity against NPM-ALK negative human HL-60 cells assessed as inhibition of cell growth incubated for 72 hrs by MTS assay; format: functional, cell-based; conditions: HL-60, 72 h
[7] = system: KARPAS-299; test: Antiproliferative activity against human KARPAS-299 cells harboring crizotinib resistant ALK L1196Q mutant assessed as inhibition of cell growth at 0.1 to 10 uM incubated for 72 hrs by MTS assay; format: functional, cell-based; conditions: dose 0.1-10 µM
[8] = Antiproliferative activity against NPM-ALK positive human SUPM2 cells assessed as inhibition of cell growth incubated for 72 hrs by MTS assay; format: functional, cell-based; conditions: SUP-M2, 72 h
[9] = system: KARPAS-299; test: Antiproliferative activity against NPM-ALK positive human KARPAS-299 cells assessed as inhibition of cell growth incubated for 72 hrs by MTS assay; format: functional, cell-based; conditions: KARPAS-299, 72 h
[10] = system: SUPM2; format: functional, cell-based; conditions: Homo sapiens, dose 0.1-10 µM, time 72.0 hrs
[11] = biological target: Vascular endothelial growth factor receptor 2 (Homo sapiens) (UniProt P35968); test: Inhibition of recombinant VEGFR2 (unknown origin) at 10 uM by kinase selectivity assay relative to control
[12] = system: BaF3; test: Cytotoxicity against mouse BaF3 cells harboring crizotinib resistant NPM/ALK I1171N mutant assessed as inhibition of cell proliferation incubated for 72 hrs by MTS assay; format: functional, cell-based; conditions: BaF3, 72 h
[13] = system: BaF3; test: Cytotoxicity against mouse BaF3 cells harboring crizotinib resistant NPM/ALK F1174L mutant assessed as inhibition of cell proliferation incubated for 72 hrs by MTS assay; format: functional, cell-based; conditions: BaF3, 72 h
[14] = Tmax in po dosed nude mouse; format: ADME, organism-based; conditions: in vivo
[15] = biological target: Fibroblast growth factor receptor 1 (Homo sapiens) (UniProt P11362); test: Inhibition of recombinant FGFR1 (unknown origin) at 10 uM by kinase selectivity assay relative to control
[16] = system: BaF3; test: Cytotoxicity against mouse BaF3 cells harboring crizotinib resistant NPM/ALK C1156Y mutant assessed as inhibition of cell proliferation incubated for 72 hrs by MTS assay; format: functional, cell-based; conditions: BaF3, 72 h
[17] = biological target: Epidermal growth factor receptor (Homo sapiens) (UniProt P00533); test: Inhibition of recombinant EGFR (unknown origin) at 10 uM by kinase selectivity assay relative to control
[18] = system: KARPAS-299; test: Antitumor activity against crizotinib-resistant human KARPAS-299 cells harboring L1196Q mutant xenografted in nude mouse assessed as tumor growth inhibition at 100 mg/kg, po administered twice daily for 24 days; format: functional, organism-based; conditions: time 24.0 day
[19] = system: SU-DHL-1; test: Antiproliferative activity against NPM-ALK positive human SU-DHL-1 cells assessed as inhibition of cell growth incubated for 72 hrs by MTS assay; format: functional, cell-based; conditions: SU-DHL-1, 72 h
[20] = system: KARPAS-299; test: Antitumor activity against human KARPAS-299 cells xenografted in nude mouse assessed as tumor growth inhibition at 100 mg/kg, po administered twice daily for 24 days; format: functional; parameters: scale not given: the % may be the effect or the level left; conditions: time 24 day
[21] = system: SUPM2; test: Antiproliferative activity against human SUPM2 cells harboring crizotinib resistant ALK […] mutant assessed as inhibition of cell growth at 0.1 to 10 uM incubated for 72 hrs by MTS assay; format: functional, cell-based; conditions: dose 0.1-10 µM
[22] = biological target: Insulin-like growth factor 1 receptor (Homo sapiens) (UniProt P08069); test: Inhibition of recombinant IGF1R (unknown origin) at 10 uM by kinase selectivity assay relative to control
[23] = system: SUPM2; test: Antiproliferative activity against human SUPM2 cells harboring crizotinib resistant ALK S1206C mutant assessed as inhibition of cell growth at 0.1 to 10 uM incubated for 72 hrs by MTS assay; format: functional, cell-based; conditions: dose 0.1-10 µM

Chain of ALK tyrosine kinase receptor (Q9UM73 whole entry): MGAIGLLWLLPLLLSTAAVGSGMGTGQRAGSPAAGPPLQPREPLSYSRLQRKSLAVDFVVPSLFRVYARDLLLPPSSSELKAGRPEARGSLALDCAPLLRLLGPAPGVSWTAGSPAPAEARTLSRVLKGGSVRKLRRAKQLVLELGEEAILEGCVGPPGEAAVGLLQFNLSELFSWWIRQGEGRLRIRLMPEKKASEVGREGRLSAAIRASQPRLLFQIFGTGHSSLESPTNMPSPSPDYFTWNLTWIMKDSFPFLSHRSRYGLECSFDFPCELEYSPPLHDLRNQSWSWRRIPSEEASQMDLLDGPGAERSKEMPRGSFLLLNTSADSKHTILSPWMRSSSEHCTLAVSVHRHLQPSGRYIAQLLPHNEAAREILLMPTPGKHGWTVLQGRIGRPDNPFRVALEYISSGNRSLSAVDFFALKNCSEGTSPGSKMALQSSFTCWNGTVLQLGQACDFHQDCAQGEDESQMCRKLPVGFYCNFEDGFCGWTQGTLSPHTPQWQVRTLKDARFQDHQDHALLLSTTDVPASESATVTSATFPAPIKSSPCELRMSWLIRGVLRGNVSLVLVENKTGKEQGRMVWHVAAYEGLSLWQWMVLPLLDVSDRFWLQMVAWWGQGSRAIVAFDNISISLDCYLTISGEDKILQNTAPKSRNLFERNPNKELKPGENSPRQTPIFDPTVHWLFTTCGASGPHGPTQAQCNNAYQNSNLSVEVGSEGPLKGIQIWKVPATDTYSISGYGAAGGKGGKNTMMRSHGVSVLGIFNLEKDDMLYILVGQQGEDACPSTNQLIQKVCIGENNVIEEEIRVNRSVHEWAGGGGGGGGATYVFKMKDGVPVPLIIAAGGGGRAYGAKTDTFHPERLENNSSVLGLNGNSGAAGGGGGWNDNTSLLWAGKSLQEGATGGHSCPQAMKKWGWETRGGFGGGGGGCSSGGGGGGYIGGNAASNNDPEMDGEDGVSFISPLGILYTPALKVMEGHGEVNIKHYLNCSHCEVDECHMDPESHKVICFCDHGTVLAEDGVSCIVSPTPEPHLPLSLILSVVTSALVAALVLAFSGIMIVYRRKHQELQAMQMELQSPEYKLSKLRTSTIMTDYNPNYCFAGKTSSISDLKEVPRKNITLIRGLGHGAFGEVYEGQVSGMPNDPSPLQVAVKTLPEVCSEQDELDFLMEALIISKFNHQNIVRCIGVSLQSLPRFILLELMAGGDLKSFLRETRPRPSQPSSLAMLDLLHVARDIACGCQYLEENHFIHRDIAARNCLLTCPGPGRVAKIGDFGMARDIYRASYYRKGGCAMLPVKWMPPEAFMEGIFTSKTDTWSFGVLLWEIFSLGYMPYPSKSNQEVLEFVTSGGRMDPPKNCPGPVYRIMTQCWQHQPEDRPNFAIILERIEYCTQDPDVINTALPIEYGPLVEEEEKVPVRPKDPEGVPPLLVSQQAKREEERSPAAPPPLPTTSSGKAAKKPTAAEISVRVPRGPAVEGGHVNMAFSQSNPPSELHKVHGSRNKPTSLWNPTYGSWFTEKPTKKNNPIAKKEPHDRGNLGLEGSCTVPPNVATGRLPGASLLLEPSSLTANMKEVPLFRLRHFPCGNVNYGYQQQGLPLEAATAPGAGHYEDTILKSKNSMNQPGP
Chain of Fibroblast growth factor receptor 1 (Homo sapiens) (P11362 22-822 limits assumed): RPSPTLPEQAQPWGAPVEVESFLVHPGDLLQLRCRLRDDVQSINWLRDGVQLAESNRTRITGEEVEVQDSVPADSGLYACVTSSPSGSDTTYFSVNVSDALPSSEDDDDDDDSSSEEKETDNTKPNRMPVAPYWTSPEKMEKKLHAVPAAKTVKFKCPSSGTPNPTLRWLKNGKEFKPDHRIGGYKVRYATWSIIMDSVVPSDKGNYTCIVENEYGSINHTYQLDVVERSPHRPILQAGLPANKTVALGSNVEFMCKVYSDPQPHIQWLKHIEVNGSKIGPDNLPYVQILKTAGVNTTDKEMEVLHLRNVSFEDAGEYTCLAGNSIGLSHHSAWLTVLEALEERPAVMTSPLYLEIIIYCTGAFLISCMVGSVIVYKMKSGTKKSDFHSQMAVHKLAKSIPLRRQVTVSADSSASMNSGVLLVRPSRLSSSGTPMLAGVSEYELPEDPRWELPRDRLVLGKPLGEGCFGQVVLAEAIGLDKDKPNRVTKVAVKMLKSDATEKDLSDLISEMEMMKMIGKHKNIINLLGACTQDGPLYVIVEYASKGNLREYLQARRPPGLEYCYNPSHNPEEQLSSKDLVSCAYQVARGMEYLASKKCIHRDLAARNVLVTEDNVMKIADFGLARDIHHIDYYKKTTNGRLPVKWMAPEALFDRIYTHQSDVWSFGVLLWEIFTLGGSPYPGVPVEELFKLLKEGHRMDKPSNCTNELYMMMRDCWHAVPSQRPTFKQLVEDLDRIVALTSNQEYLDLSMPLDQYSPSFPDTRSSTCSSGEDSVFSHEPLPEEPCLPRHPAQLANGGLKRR
Chain of Vascular endothelial growth factor receptor 2 (Homo sapiens) (P35968 whole entry): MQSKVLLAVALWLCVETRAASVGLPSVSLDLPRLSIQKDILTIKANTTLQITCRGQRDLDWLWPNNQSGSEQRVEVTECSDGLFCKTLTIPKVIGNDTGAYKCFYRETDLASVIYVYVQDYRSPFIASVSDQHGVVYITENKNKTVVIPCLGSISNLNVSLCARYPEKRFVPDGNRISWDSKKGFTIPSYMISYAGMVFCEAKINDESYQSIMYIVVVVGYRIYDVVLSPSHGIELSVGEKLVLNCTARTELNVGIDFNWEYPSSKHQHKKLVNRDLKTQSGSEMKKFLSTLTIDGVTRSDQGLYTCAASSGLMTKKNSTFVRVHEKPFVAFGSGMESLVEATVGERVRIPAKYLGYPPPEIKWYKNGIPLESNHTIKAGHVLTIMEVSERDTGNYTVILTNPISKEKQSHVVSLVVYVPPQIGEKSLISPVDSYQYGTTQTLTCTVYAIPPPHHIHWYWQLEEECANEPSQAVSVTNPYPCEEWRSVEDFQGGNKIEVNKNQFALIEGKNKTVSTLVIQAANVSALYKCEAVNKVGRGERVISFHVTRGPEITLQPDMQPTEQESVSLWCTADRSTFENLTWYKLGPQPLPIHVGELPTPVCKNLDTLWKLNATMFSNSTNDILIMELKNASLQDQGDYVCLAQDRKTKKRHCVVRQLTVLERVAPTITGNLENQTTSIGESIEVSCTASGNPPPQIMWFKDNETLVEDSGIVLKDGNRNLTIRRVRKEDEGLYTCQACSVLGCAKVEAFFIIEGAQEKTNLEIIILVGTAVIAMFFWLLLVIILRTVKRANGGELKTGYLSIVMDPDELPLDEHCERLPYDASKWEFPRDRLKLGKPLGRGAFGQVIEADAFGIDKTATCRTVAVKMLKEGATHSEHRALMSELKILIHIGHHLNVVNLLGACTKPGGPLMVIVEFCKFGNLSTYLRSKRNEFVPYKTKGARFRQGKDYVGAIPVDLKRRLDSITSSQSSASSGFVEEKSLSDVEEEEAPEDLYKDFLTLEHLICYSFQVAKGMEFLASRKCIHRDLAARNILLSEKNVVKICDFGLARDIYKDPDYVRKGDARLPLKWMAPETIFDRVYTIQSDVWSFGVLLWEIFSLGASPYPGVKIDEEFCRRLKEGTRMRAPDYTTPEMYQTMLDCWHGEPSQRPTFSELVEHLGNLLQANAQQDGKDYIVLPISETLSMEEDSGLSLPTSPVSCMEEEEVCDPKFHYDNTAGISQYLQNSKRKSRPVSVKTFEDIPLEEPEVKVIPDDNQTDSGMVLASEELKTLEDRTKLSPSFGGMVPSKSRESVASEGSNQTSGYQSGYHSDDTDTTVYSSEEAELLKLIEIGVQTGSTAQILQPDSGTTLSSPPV
Chain of Insulin-like growth factor 1 receptor (Homo sapiens) (P08069 31-736 limits assumed): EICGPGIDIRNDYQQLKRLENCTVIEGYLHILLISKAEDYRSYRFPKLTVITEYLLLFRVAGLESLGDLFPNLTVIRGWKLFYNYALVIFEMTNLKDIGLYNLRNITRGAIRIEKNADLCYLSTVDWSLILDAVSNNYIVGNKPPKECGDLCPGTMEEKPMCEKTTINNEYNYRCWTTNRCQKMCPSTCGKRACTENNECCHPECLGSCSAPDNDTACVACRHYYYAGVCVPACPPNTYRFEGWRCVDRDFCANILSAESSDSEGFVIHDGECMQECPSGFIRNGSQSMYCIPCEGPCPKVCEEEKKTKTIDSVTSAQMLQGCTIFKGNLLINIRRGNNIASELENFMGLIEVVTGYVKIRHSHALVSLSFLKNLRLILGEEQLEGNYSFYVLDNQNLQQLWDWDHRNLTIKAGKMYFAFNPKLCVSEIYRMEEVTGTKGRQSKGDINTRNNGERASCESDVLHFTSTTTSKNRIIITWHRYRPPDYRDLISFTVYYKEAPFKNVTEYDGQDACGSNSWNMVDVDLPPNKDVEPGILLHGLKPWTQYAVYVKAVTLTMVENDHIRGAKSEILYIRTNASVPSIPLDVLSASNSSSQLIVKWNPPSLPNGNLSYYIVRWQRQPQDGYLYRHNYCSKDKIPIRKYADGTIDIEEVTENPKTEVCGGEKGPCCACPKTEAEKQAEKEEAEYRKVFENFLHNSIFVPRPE
Chain of Insulin-like growth factor 1 receptor (Homo sapiens) (P08069 741-1367 limits assumed): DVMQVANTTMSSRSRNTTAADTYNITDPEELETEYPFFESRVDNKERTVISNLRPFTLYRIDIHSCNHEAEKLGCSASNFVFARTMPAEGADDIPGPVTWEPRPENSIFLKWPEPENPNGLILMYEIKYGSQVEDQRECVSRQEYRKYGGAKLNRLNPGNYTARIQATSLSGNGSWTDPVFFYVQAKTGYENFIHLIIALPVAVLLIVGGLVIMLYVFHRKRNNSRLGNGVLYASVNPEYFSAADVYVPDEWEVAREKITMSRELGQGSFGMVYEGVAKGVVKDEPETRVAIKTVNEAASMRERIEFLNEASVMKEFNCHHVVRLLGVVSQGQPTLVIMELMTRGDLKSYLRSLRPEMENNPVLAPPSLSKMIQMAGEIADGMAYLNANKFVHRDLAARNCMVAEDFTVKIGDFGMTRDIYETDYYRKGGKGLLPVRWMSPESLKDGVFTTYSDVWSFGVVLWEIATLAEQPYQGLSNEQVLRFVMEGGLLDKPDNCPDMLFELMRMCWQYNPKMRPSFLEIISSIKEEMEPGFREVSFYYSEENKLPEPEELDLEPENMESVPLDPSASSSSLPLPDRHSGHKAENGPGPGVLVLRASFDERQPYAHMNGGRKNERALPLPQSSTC

Row | IC50 [1] | IC50 [2] | IC50 [3] | IC50 [4] | SMILES | also measured
1 | > 10 µM | – | – | – | C#Cc1ccnc2[nH]c3ccc(-c4ccc(N5CCN(C)CC5)cc4)cc3c12 | –
2 | – | 0.8 µM | 800 nM | 500 nM | COc1cc(-c2ccnc3[nH]c4ccc(-c5ccc(N6CCN(C)CC6)cc5)cc4c23)c(OC)cc1Cc1ccccc1 | –
3 | > 10 µM | – | – | – | COc1cc(C(O)c2ccccc2)c(O)cc1-c1ccnc2[nH]c3ccc(-c4ccc(N5CCN(C)CC5)cc4)cc3c12 (stereo not given) | –
4 | – | > 25 µM | 4300 nM | 2800 nM | CN1CCN(c2ccc(-c3ccc4[nH]c5nccc(-c6ccc(-c7ccccc7)cc6)c5c4c3)cc2)CC1 | –
5 | – | 5.1 µM | 1900 nM | 1600 nM | CN1CCN(c2ccc(-c3ccc4[nH]c5nccc(/C=C/c6ccccc6F)c5c4c3)cc2)CC1 | –
6 | – | 1.1 µM | 1600 nM | 1500 nM | CN1CCN(c2ccc(-c3ccc4[nH]c5nccc(/C=C/c6ccccc6)c5c4c3)cc2)CC1 | –
7 | > 10 µM | – | – | – | O=[N+]([O-])c1ccccc1Nc1ccnc2[nH]c3ccccc3c12 | –
8 | > 10 µM | – | – | – | COc1ccc(-c2ccnc3[nH]c4ccccc4c23)cc1 | –
9 | > 10 µM | – | – | – | COC(=O)c1cc(-c2ccnc3[nH]c4ccc(-c5ccc(N6CCN(C)CC6)cc5)cc4c23)ccc1Cc1ccccc1 | –
10 | – | 3.3 µM | 1200 nM | 600 nM | CN1CCN(c2ccc(-c3ccc4[nH]c5nccc(N6CCC(Cc7ccccc7)CC6)c5c4c3)cc2)CC1 | –
11 | – | 1.7 µM | 1500 nM | 900 nM | CN1CCN(c2ccc(-c3ccc4[nH]c5nccc(/C=C/c6ccccc6C(F)(F)F)c5c4c3)cc2)CC1 | –
12 | – | 8.7 µM | – | – | CN1CCN(c2ccc(-c3ccc4[nH]c5nccc(-c6ccc(Cc7ccccc7)cc6)c5c4c3)cc2)CC1 | half-life [5]: < 1440 min; IC50 [6]: 17 µM; Activity [7]: Active; IC50 [8]: 1100 nM; IC50 [9]: 700 nM; Activity [10]: Active; inhibition [11]: > 90%; IC50 [12]: 1900 nM; IC50 [13]: 2400 nM; Tmax [14]: 4 h; inhibition [15]: > 90%; IC50 [16]: 1300 nM; inhibition [17]: > 90%; Activity [18]: Active; IC50 [19]: 800 nM; Activity [20]: 80%; Activity [21]: Active; inhibition [22]: > 90%; Activity [23]: Active
13 | – | 2.7 µM | 1800 nM | 1900 nM | CN1CCN(c2ccc(-c3ccc4[nH]c5nccc(-c6cccc(-c7ccccc7)c6)c5c4c3)cc2)CC1 | –
14 | – | 1 µM | 400 nM | 500 nM | CN1CCN(c2ccc(-c3ccc4[nH]c5nccc(-c6ccc(-c7cccc8ccccc78)cc6)c5c4c3)cc2)CC1 | –
15 | – | 18 µM | 6100 nM | 1700 nM | CN1CCN(c2ccc(-c3ccc4[nH]c5nccc(-c6ccc(C(=O)c7ccccc7)cc6)c5c4c3)cc2)CC1 | –
16 | – | 13 µM | 2600 nM | 2100 nM | C[N+]1(C)CCN(c2ccc(-c3ccc4[nH]c5nccc(C#Cc6ccccc6C(F)(F)F)c5c4c3)cc2)CC1 | –
17 | – | 4.1 µM | 600 nM | 1600 nM | COc1ccc(/C=C/c2ccnc3[nH]c4ccc(-c5ccc(N6CCN(C)CC6)cc5)cc4c23)cc1 | –
18 | > 10 µM | – | – | – | CCN(CC)CCSCC(=O)c1ccc2[nH]c3nccc(Cl)c3c2c1 | –
19 | – | 9.5 µM | 2700 nM | 1800 nM | CN1CCN(c2ccc(-c3ccc4[nH]c5nccc(/C=C/c6cccc(F)c6)c5c4c3)cc2)CC1 | –
20 | > 10 µM | – | – | – | c1ccc(Cc2ccc(-c3ccnc4[nH]c5ccc(-c6ccc(N7CCN(Cc8cccnc8)CC7)cc6)cc5c34)cc2)cc1 | –
21 | – | > 25 µM | > 25000 nM | > 25000 nM | Cc1cc(OCc2ccc(-c3ccnc4[nH]c5ccc(-c6ccc(N7CCN(C)CC7)cc6)cc5c34)cc2)ccc1Cl | –
22 | – | 4.4 µM | 3700 nM | 2700 nM | CN1CCN(c2ccc(-c3ccc4[nH]c5nccc(C#Cc6ccccc6)c5c4c3)cc2)CC1 | –
23 | > 10 µM | – | – | – | CN(C)/C=C/C(=O)c1ccc2[nH]c3nccc(-c4ccc(Cc5ccccc5)cc4)c3c2c1 | –
